Assay results from ChEMBL document CHEMBL4014278, “Discovery of uracil-bearing DAPYs derivatives as novel HIV-1 NNRTIs via crystallographic overlay-based molecular hybridization” (Eur J Med Chem, 2017).
Values after ≈ are worked out from the molar mass of the structure shown. Structures can show the parent of a compound that is named as a salt.

What was measured:
[1] = test system: Human immunodeficiency virus 1; assay: Antiviral activity against HIV1 harboring K103N mutant infected in human MT4 cells assessed as protection against virus-induced cytopathic effect measured at 5 days post infection by MTT assay; assay type: functional, cell-based; conditions: Human immunodeficiency virus 1, MT4, 120 h
[2] = test system: Human immunodeficiency virus 2; assay: Antiviral activity against HIV-2 ROD infected in human MT4 cells assessed as protection against virus-induced cytopathic effect measured at 5 days post infection by MTT assay; assay type: functional, cell-based; conditions: Human immunodeficiency virus 2, ISOLATE ROD, MT4, 120 h
[3] = Inhibition of wild-type HIV1 reverse transcriptase assessed as decrease in biotin-dUTP incorporation using poly(A)/oligo(dT)15 as template/primer after 1 hr by ELISA; design: species or system Human immunodeficiency virus 1
[4] = test system: Human immunodeficiency virus 1; assay: Antiviral activity against HIV1 harboring L100I mutant infected in human MT4 cells assessed as protection against virus-induced cytopathic effect measured at 5 days post infection by MTT assay; assay type: functional, cell-based; conditions: Human immunodeficiency virus 1, MT4, 120 h
[5] = test system: Human immunodeficiency virus 1; assay: Antiviral activity against HIV1 RES056 harboring K103N/Y181C double mutant infected in human MT4 cells assessed as protection against virus-induced cytopathic effect measured at 5 days post infection by MTT assay; assay type: functional, cell-based; conditions: Human immunodeficiency virus 1, RES056, MT4, 120 h
[6] = test system: Human immunodeficiency virus 1; assay: Fold resistance, ratio of EC50 for HIV1 harboring E138K mutant infected in human MT4 cells to EC50 for wild-type HIV1 3B infected in human MT4 cells; assay type: functional
[7] = test system: Human immunodeficiency virus 1; assay: Fold resistance, ratio of EC50 for HIV1 harboring Y181C mutant infected in human MT4 cells to EC50 for wild-type HIV1 3B infected in human MT4 cells; assay type: functional
[8] = test system: Human immunodeficiency virus 1; assay: Fold resistance, ratio of EC50 for HIV1 harboring Y188L mutant infected in human MT4 cells to EC50 for wild-type HIV1 3B infected in human MT4 cells; assay type: functional
[9] = test system: Human immunodeficiency virus 1; assay: Antiviral activity against HIV1 harboring E138K mutant infected in human MT4 cells assessed as protection against virus-induced cytopathic effect measured at 5 days post infection by MTT assay; assay type: functional, cell-based; conditions: Human immunodeficiency virus 1, MT4, 120 h
[10] = test system: Human immunodeficiency virus 1; assay: Antiviral activity against HIV1 harboring Y181C mutant infected in human MT4 cells assessed as protection against virus-induced cytopathic effect measured at 5 days post infection by MTT assay; assay type: functional, cell-based; conditions: Human immunodeficiency virus 1, MT4, 120 h
[11] = test system: Human immunodeficiency virus 1; assay: Antiviral activity against HIV1 harboring Y188L mutant infected in human MT4 cells assessed as protection against virus-induced cytopathic effect measured at 5 days post infection by MTT assay; assay type: functional, cell-based; conditions: Human immunodeficiency virus 1, MT4, 120 h
[12] = test system: Human immunodeficiency virus 1; assay: Antiviral activity against HIV1 harboring F227L/V106A double mutant infected in human MT4 cells assessed as protection against virus-induced cytopathic effect measured at 5 days post infection by MTT assay; assay type: functional, cell-based; conditions: Human immunodeficiency virus 1, MT4, 120 h
[13] = Selectivity index, ratio of CC50 for human MT4 cells to EC50 for wild-type HIV1 3B infected in human MT4 cells; assay type: toxicity, cell-based; conditions: read-out: Ratio CC50/EC50
[14] = Solubility of the compound in phosphate buffer at pH 7.4 after 2 hrs by UV-HPLC method; assay type: physicochemical
[15] = test system: Human immunodeficiency virus 1; assay: Fold resistance, ratio of EC50 for HIV1 harboring K103N mutant infected in human MT4 cells to EC50 for wild-type HIV1 3B infected in human MT4 cells; assay type: functional
[16] = Cytotoxicity against human MT4 cells after 5 days by MTT assay; assay type: cell-based
[17] = test system: Human immunodeficiency virus 1; assay: Antiviral activity against wild-type HIV1 3B infected in human MT4 cells assessed as protection against virus-induced cytopathic effect measured at 5 days post infection by MTT assay; assay type: functional, cell-based; conditions: Human immunodeficiency virus 1, 3B, MT4, 120 h
[18] = test system: Human immunodeficiency virus 1; assay: Fold resistance, ratio of EC50 for HIV1 harboring L100I mutant infected in human MT4 cells to EC50 for wild-type HIV1 3B infected in human MT4 cells; assay type: functional
[19] = Solubility of the compound in phosphate buffer at pH 2 after 2 hrs by UV-HPLC method; assay type: physicochemical
[20] = n-Octanol/water partition coefficient, log P of the compound after 2 hrs by HPLC method; assay type: physicochemical
[21] = Lipophilicity, log P of the compound; assay type: physicochemical; conditions: octanol/water
[22] = Solubility of the compound in water at pH 7.4; assay type: physicochemical
[23] = Solubility of the compound in 0.1 N HCl at pH 2; assay type: physicochemical

Compound	EC50 [2] [nM]	EC50 [4] [nM]	EC50 [5] [nM]	EC50 [10] [nM]	EC50 [11] [nM]	selectivity ratio [13]	CC50 at 120 h [16] [nM]	EC50 [17] [nM]	other results
Cc1cc(/C=C/C#N)cc(C)c1Oc1nc(NCCn2ccc(=O)[nH]c2=O)ncc1Cl	> 285000	430	23300	150	52000	> 50500	> 285000	5.6	EC50 [1]: 86 nM; IC50 [3]: 1580 nM; Ratio EC50 [6]: 6; Ratio EC50 [7]: 27; Ratio EC50 [8]: 9277; EC50 [9]: 34 nM; EC50 [12]: ≥ 96600 nM; solubility at 2 h [14]: < 0.1 µg/mL; Ratio EC50 [15]: 15; Ratio EC50 [18]: 77
Cc1cc(/C=C/C#N)cc(C)c1Oc1ccnc(NCCn2ccc(=O)[nH]c2=O)n1	> 309000		> 309000			> 9100	> 309000	34	solubility at 2 h [14]: < 1 µg/mL
Cc1cc(C=CC#N)cc(C)c1Oc1cc(NCCn2ccc(=O)[nH]c2=O)nc(Cl)n1	> 26200					5	26200	5810	
Cc1cc(C)c(Oc2nc(NCCn3ccc(=O)[nH]c3=O)ncc2Cl)c(C)c1	> 2490		> 2490			317	2490	7.8	
Cc1cc(C#N)cc(C)c1Oc1cc(N)nc(NCCn2ccc(=O)[nH]c2=O)n1	> 204000		> 204000			11	204000	18900	
Cc1cc(C)c(Oc2nc(Cl)ncc2NCCn2ccc(=O)[nH]c2=O)c(C)c1	> 2890		> 2890			< 1	2890	> 2890	
Cc1cc(C#N)cc(C)c1Oc1cc(NCCn2ccc(=O)[nH]c2=O)nc(Cl)n1	> 27900		> 27900			3	27900	9380	
Cc1cc(C)cc(Oc2nc(NCCn3ccc(=O)[nH]c3=O)ncc2Cl)c1	> 322000		> 322000			> 367	> 322000	880	
Cc1cc(/C=C/C#N)cc(C)c1Oc1cc(N)nc(NCCn2ccc(=O)[nH]c2=O)n1	> 298000	21900	> 298000	4820	> 298000	> 1740	> 298000	170	EC50 [1]: 530 nM; solubility at 2 h [19]: 91.7 µg/mL (≈ 219 µM); Ratio EC50 [6]: 5; Ratio EC50 [7]: 28; Ratio EC50 [8]: >1753; EC50 [9]: 830 nM; EC50 [12]: > 298000 nM; solubility at 2 h [14]: 0.43 µg/mL (≈ 1.03 µM); Ratio EC50 [15]: 3; logP at 2 h [20]: 1.21; Ratio EC50 [18]: 129
Cc1cc(C)cc(Oc2ccnc(NCCn3ccc(=O)[nH]c3=O)n2)c1	> 74800		> 74800			2	74800	48800	
CC(C)Nc1cccnc1N1CCN(C(=O)c2cc3cc(NS(C)(=O)=O)ccc3[nH]2)CC1 [DELAVIRDINE MESYLATE]		2100	32	2040	690		30400		EC50 [9]: 43 nM
O=C1Nc2ccc(Cl)cc2[C@@](C#CC2CC2)(C(F)(F)F)O1 [EFAVIRENZ]		100		6.8	340		> 6340		EC50 [12]: 210 nM
Cc1cc(C#N)cc(C)c1Oc1nc(Nc2ccc(C#N)cc2)nc(N)c1Br [ETRAVIRINE]		6.6	3.4						logP [21]: > 5; IC50 [3]: 1000 nM; solubility [22]: < 1 µg/mL; solubility [23]: < 1 µg/mL
Cc1ccnc2c1NC(=O)c1cccnc1N2C1CC1 [NEVIRAPINE]		830	260	6220	9610		> 15000		IC50 [3]: 1390 nM
Cc1cn([C@H]2C[C@H](N=[N+]=[N-])[C@@H](CO)O2)c(=O)[nH]c1=O [ZIDOVUDINE]			7.1	7.1	11	> 1050	> 7480		EC50 [1]: 8.3 nM; EC50 [9]: 13 nM; EC50 [12]: 5 nM
